Test results reported in patent US20110224300A1, “USE OF POTASSIUM 2-(a- HYDROXYPENTYL) BENZOATE IN THE MANUFACTURE OF MEDICAMENTS FOR PREVENTING AND/OR TREATING SENILE [sequence]” (Institute of Mataria Medica, Chinese Academy of Me, priority 2008, published 2011).

Key:
[1] = tested on: permanent 2-VO rats (chronic cerebral hypoperfusion); test: Morris water maze in permanent 2-VO (BCCAO) rats; format: in vivo, rat; settings: Piracetam 600 mg/kg
From the text: Chronic cerebral hypoperfusion was proceeded by a permanent, bilateral occlusion of the common carotid arteries (2-VO) of adult rats. The rats were anesthetized with 10% trichloro-acetaldehyde, and temperature probe was inserted into the rectum, and a separate heating lamp was used to maintain rectal temperature at normothermic level. After a midline neck skin incision, the common carotid artery were exposed and ligated by a 5-0 nylon suture.
Rats were randomly divided into six experimental groups (20 rats/each group): one sham-operated group, one vehicle control group, one piracetam-treated group (600 mg/kg), and three dl-PHPB-treated groups (13, 39, and 129 mg/kg). In 10 days after onset of 2-VO, drugs and vehicle were administered orally to rats for 21 days (one time/each day). The spatial learning and memory capability of rats were detected by Morris water maze in the 25-30 days after operation. The Morris water test was commenced at 40 min after drugs treated. The biochemical and pathology assays were conducted later (in 24 h) after behavioral tests.
Subjects were tested in a Morris water maze. This test is based on a standardized assessment of spatial learning ability. The water maze apparatus consisted of a circular, stainless pool (120 cm in diameter, 60 cm in height). It was placed in a dimly lit, sound-proof test room. Multiple distant cues around the room (window, cabinets, furniture) were kept in the same location throughout the experiments. The water was filled to a depth of 40 cm at 25±1° C. and was made opaque by adding milk powder to prevent visualization of the platform. A transparent platform (10 cm diameter) was put 1.5 cm below the surface of the water. The tank was divided into four quadrants with the platform in a fixed position in one quadrant. The subjects were placed into the maze facing the pool wall and were allowed two trials per day, 60 s per trial, to find the hidden platform. If the subject found the platform within the 60 s, it was given a 10-s rest period on the platform between trials. If the pedestal was not located within the time allotted, the subject was placed on to the platform and allowed 10 s until the next trial. The escape latency (time to reach the platform) was used to assess acquisition of the water maze task. Sessions were repeated for five consecutive days. On the sixth day, the platform was removed and the rat was allowed to search for the platform for 60 s (probe test). The time in the platform quadrant and latency time to cross platform location were recorded to measure the spatial learning ability without the influence of chance encounters with the platform. The Morris water maze sessions were recorded with a video camera for offline analysis.

GFAP = GFAP immunohistochemistry, activated astrocytes of 2-VO rats; format: in vivo, rat
Procedure: The method for tissue fixation was described above. Serial coronal sections (40 μm) of the brains were cut through the dorsal hippocampus on a freezing microtome and collected in 6-well plates containing 0.01 M PBS. The detection of GFAP and BDNF immunoreactivity was performed using a conventional avidin-biotin-immunoperoxidease technique.
For quantitative analysis, one from every five samples in a continuous series of hippocampal or cortical tissue sections was taken, and was processed immunohistochemically. Thus, three slides were taken from each rat, and were read under an objective (×1.6) microscope. The total area of positively stained neurons was counted with Image-pro Plus 5.0 software.
Cerebral damage caused by hypoperfusion may be the basis for spatial learning and memory impairment, including earliest white matter damage, accompanied by an increase of astrocytes and microglia activation. Glial fibrillary acidic protein (GFAP) immunohistochemical staining can be used to label the activated astrocytes. 2-3 photos were taken from each selected slices in the same regions. The number of the GFAP positive astrocytes was calculated as the average value of the region. Four anatomical regions were selected to observe: the cortex, hippocampus, corpus callosum and optic tract.

[2] = 1st of 5 M/R/T/L column groups (day not printed)
[3] = 2nd of 5 M/R/T/L column groups (day not printed)
[4] = 3rd of 5 M/R/T/L column groups (day not printed)
[5] = 4th of 5 M/R/T/L column groups (day not printed)
[6] = 5th of 5 M/R/T/L column groups (day not printed)

NC(=O)CN1CCCC1=O [Piracetam, reference compound]
search strategy times, linear mode (L) [1, 2]: 1 | search strategy times, marginal mode (M) [1, 2]: 10 | search strategy times, random mode (R) [1, 2]: 15 | search strategy times, tendency mode (T) [1, 2]: 14 | search strategy times, linear mode (L) [1, 3]: 8 | search strategy times, marginal mode (M) [1, 3]: 3 | search strategy times, random mode (R) [1, 3]: 11 | search strategy times, tendency mode (T) [1, 3]: 17 | search strategy times, linear mode (L) [1, 4]: 10 | search strategy times, marginal mode (M) [1, 4]: 1 | search strategy times, random mode (R) [1, 4]: 6 | search strategy times, tendency mode (T) [1, 4]: 23 | search strategy times, linear mode (L) [1, 5]: 10 | search strategy times, marginal mode (M) [1, 5]: 1 | search strategy times, random mode (R) [1, 5]: 7 | search strategy times, tendency mode (T) [1, 5]: 23 | search strategy times, linear mode (L) [1, 6]: 19 | search strategy times, marginal mode (M) [1, 6]: 1 | search strategy times, random mode (R) [1, 6]: 8 | search strategy times, tendency mode (T) [1, 6]: 12 | GFAP-positive cells in the optic tract (GFAP; Piracetam, 21 days): significantly less than the vehicle group | GFAP-positive cells in the hippocampus (GFAP; administration of 21 days, P<0.05 or P<0.01): significantly less than in the vehicle group | GFAP-positive cells in the cortex (GFAP; administration of 21 days, in particular dl-PHPB 39 mg/kg (P<0.01)): significantly less than in the vehicle group
